Peptide text beside a SMILES is read from it.
What was measured:
[1] = tested on: S. aureus; assay: Membrane permeability, PI staining; type: cell-based; conditions: 37 °C, 30 min with peptide, then PI; fluorescence microscope
Experimental: The permeability assay was performed as previously described with slight modifications. S. aureus was until the OD600 reached 0.3–0.6, washed three times with PBS, and resuspended to 1 × 10^8 CFU/mL. The bacteria (100 µL) were mixed with 50 µL of antimicrobial peptide and incubated at 37 °C for 30 min, with PBS as a control. The supernatant was centrifuged and discarded, the bacteria were resuspended with PI-diluted dye, and stained at 37 °C for 30 min. After washing three times with PBS, the unbound stain was removed, and 10 µL of PBS was taken; an appropriate amount of […] was added onto the slide, the cover glass was observed by fluorescence microscope.

[2] = tested on: S. aureus, Listeria monocytogenes, B. subtilis, Salmonella typhimurium, E. coli O157, E. coli; assay: Inhibition zone method; type: cell-based; conditions: inhibition zone in LB agar; three Gram-positive and three Gram-negative bacteria; positive control 50 µg/mL gentamicin
Experimental: (§1) The inhibition zone method was performed as described in a previous study with slight modifications. Fifty microliters of the bacterial solution was mixed with 15 mL lysogeny broth, and the inhibition zone of the six bacteria was determined by drilling after coagulation. The stability of PMAP-37(F34-R) against S. aureus was determined using the inhibition zone method. 4 µg/mL PMAP-37(F-34R) was dissolved in buffers with different pH (2, 4, 6, 8, and 10), different proteases (papain, pepsin, trypsin, and protease K), and different temperatures (4, 25, 37, 65, and 90 °C). The stability profiles under various pH, proteases, and temperatures were determined. Untreated buffer was used as a negative control.

[3] = tested on: S. aureus; assay: Total nucleotide leakage; type: cell-based; conditions: within 30 min after treatment; 37 °C, PBS; OD 260 nm of supernatant
Experimental: The total nucleotide leakage experiment was performed according to a previously reported method with slight modifications. S. aureus was collected, washed twice, and resuspended in PBS to an OD600 of 0.8. Antimicrobial peptides were added and incubated at 37 °C for various durations. The bacterial solution was centrifuged to remove S. aureus. The OD of the supernatant was recorded at a wavelength of 260 nm.

[4] = set-up: method as in PMID 31858653; conditions: compared with antibiotic; cited from earlier work
[5] = tested on: S. aureus; assay: Stability at different temperatures and pH, read out by inhibition zone; type: physicochemical; conditions: 4 µg/mL peptide, antibacterial activity against S. aureus by inhibition zone
Experimental: as §1

Q: With CC[C@H](C)[C@H](NC(=O)[C@H](CCCNC(=N)N)NC(=O)[C@H](CCC(=O)O)NC(=O)[C@@H](NC(=O)[C@H](CCCCN)NC(=O)[C@H](CCC(=O)O)NC(=O)CNC(=O)[C@H](CC(C)C)NC(=O)[C@H](CCCNC(=N)N)NC(=O)[C@H](CCCNC(=N)N)NC(=O)CNC(=O)[C@H](CCCNC(=N)N)NC(=O)[C@H](CC(=O)O)NC(=O)[C@H](CO)NC(=O)[C@H](CC(C)C)NC(=O)[C@H](Cc1ccccc1)NC(=O)[C@H](CC(=O)O)NC(=O)[C@H](CCCNC(=N)N)NC(=O)[C@H](CC(C)C)NC(=O)[C@H](CCCNC(=N)N)NC(=O)[C@H](CO)NC(=O)[C@H](CC(C)C)NC(=O)[C@H](CC(C)C)NC(=O)CN)[C@@H](C)CC)C(=O)NCC(=O)N[C@@H](CCC(N)=O)C(=O)N[C@@H](CCCCN)C(=O)N[C@H](C(=O)N[C@@H](CCCCN)C(=O)N[C@@H](CC(=O)O)C(=O)N[C@@H](CC(C)C)C(=O)N[C@@H](CO)C(=O)N[C@@H](CCC(=O)O)C(=O)N[C@@H](CCCNC(=N)N)C(=O)N[C@@H](Cc1ccccc1)C(=O)N[C@@H](CCC(N)=O)C(=O)N[C@@H](CO)C(=O)O)[C@@H](C)CC [PMAP-37(F34-R)] (H-GLLSRLRDFLSDRGRRLGEKIERIGQKIKDLSERFQS-OH; N-terminus and C-terminus assumed) as the compound, how does the “PI staining (membrane integrity)” value [1] read?
A: extensive cell death

Q: What about the “inhibitory effect (inhibition zone)” value [2] of the same compound?
A: inhibited all six bacteria tested

Q: What about the nucleotide leakage [3] of the same compound?
A: increased significantly

Q: And the “efficacy in animal experiments” value [4]?
A: comparable to that of ceftifol sodium

Q: What about the “stability at other temperatures” value ([5]; 4, 25, 37, 65 °C) of the same compound?
A: maintained good stability

Q: What about the “stability at high temperature” value ([5]; 90 °C) of the same compound?
A: partially affected

Q: What about the “stability at other pH” value ([5]; pH 2, 4, 6, 8 buffers) of the same compound?
A: maintained good stability

Q: And the “stability in strong base” value ([5]; pH = 10 buffer)?
A: partially affected

From paper PMC10464103, “Antibacterial peptide PMAP-37(F34-R), expressed in Pichia pastoris, is effective against pathogenic bacteria and preserves plums” (Microbial Cell Factories, 2023)
